{"source": "patent US20090238808A1", "about": "“Process for the identification of novel enzyme interacting compounds” (priority 2005, published 2009)", "assay_in_all_cases": "Kinobeads elution with test compound, mouse brain lysate, MS", "format_in_all_cases": "binding", "settings_in_all_cases": "kinase released from kinobeads by specific elution", "key": {"GSK3B": {"biological_target": "T1, GSK3B (Mus musculus, UniProt Q9WV60)", "T1 construct": "from tissue; host or cells: mouse brain", "T1 sequence (Q9WV60 whole entry)": "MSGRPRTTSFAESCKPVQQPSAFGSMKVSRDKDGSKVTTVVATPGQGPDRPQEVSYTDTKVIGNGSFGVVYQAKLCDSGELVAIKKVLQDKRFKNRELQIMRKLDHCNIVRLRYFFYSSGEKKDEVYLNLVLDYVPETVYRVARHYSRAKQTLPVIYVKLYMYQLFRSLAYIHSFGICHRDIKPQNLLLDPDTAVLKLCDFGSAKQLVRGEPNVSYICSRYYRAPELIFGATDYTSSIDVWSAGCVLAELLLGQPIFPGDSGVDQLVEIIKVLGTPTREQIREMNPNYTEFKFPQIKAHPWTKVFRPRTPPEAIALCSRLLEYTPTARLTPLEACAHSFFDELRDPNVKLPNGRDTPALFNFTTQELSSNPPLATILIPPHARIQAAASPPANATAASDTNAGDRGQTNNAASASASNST", "source_text": "(§1) This example illustrates competitive elution of proteins bound to kinobeads with non-modified test compounds (see particularly the fourth aspect of the invention).\n(§2) The kinobeads were contacted with mouse brain lysate under conditions that allow the binding of the proteins in the lysate to the ligands. The binding conditions were close to physiological by choosing suitable buffer conditions preserving the function of the proteins. After removing non-captured proteins through a gentle washing procedure the bound proteins were contacted with a test compound for protein elution.\n(§3) Various test compounds (see section 2.7) were used to release bound proteins following these steps:\n(§4) 1. Resuspend beads with bound proteins (section 2.4) in 1×DP buffer/0.2% NP-40 as 1:3 slurry (volume/volume). 2. Transfer 20 μl the 1:3 slurry into MoBiTech columns (equivalent to 5 μl of beads). 3. Place the column into an Eppendorf tube and centrifuge it for 15 seconds at 800 rpm at 4° C. Close columns with lower lid. 4. Add 10 μl elution buffer containing 1.0 mM of the test compound (concentration ranges of 0.1 to 1.0 mM are suitable). As a control use elution buffer containing 2% DMSO or 2% DMF dependent on the solvent used for dissolving the test compound. Close column with upper lid. 5. Incubate for 30 minutes at 4° C. in an Eppendorf incubator at 700 rpm. 6. […] To harvest the eluate centrifuge 2 minutes at 2.000 rpm in table top centrifuge at room temperature. The typical volume of the eluate is approximately 15 μl. 7. Add 5 μl 4× NuPAGE SDS Sample Buffer (Invitrogen, NP0007) containing 100 mM DTT (DTT has to be added just prior to use). 8. Incubate for 30 minutes at 50° C. 9. Add 1/10 volume of 200 mg/ml iodoacetamide, incubate for 30 min at room temperature, protect from light. This reaction leads to the alkylation of cysteines for mass spectrometry. 10. Before loading samples onto the gel, centrifuge samples for 5 minutes at 15.000 rpm in order to remove precipitates. 11. […] 2.6 Preparation of Stock Solutions used in this Protocol\n(§5) Search criteria varied depending on which mass spectrometer was used for the analysis."}, "CaMK2g": {"biological_target": "CaMK2g (Mus musculus, UniProt Q923T9)", "sequence (Q923T9 whole entry)": "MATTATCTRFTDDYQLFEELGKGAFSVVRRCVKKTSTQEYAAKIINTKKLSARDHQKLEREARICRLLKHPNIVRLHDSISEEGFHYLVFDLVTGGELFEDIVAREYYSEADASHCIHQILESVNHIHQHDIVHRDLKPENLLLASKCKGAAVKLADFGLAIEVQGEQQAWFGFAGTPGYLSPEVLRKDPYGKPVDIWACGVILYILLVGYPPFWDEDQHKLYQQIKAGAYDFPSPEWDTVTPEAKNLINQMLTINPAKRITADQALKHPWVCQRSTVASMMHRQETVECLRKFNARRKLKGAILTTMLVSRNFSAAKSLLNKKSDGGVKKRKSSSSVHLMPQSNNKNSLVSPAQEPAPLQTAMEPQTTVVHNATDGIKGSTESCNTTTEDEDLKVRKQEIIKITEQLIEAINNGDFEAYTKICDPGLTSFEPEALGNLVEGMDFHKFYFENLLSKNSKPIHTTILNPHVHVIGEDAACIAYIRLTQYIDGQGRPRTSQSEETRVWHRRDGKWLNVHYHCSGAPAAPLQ", "source_text": "as §1, §2, §3, §4, §5"}, "Erk2": {"biological_target": "T2, Erk2 (Mus musculus, UniProt P63085)", "T2 construct": "[…]; from tissue; host or cells: mouse brain", "description": "(§6) This example illustrates competitive elution of proteins bound to kinobeads with non-modified test compounds (see particularly the fourth aspect of the invention). The kinobeads (as described in example 1) were contacted with mouse brains lysate, bound proteins were eluted with various test compounds and the released proteins were analysed by mass spectrometry.\nas §2, §3\n(§7) 1. Resuspend beads with bound proteins (section 2.4) in 1×DP buffer/0.2% NP-40 as 1:3 slurry (volume/volume). 2. Transfer 20 μl the 1:3 slurry into MoBiTech columns (equivalent to 5 μl of beads). 3. Place the column into an Eppendorf tube and centrifuge it for 15 seconds at 800 rpm at 4° C. Close columns with lower lid. 4. Add 10 μl elution buffer containing 1.0 mM of the test compound (concentration ranges of 0.1 to 1.0 mM are suitable). As a control use elution buffer containing 2% DMSO or 2% DMF dependent on the solvent used for dissolving the test compound. Close column with upper lid. 5. Incubate for 30 minutes at 4° C. in an Eppendorf incubator at 700 rpm. 6. Open column (first top, then bottom), put column back into siliconized tube (SafeSeal Microcentrifuge Tubes, cat. no 11270, Sorenson BioScience, Inc.). To harvest the eluate centrifuge 2 minutes at 2.000 rpm in table top centrifuge at room temperature. The typical volume of the eluate is approximately 15 μl. 7. Add 5 μl 4× NuPAGE SDS Sample Buffer (Invitrogen, NP0007) containing 100 mM DTT (DTT has to be added just prior to use). 8. Incubate for 30 minutes at 50° C. 9. Add 1/10 volume of 200 mg/ml iodoacetamide, incubate for 30 min at room temperature, protect from light. This reaction leads to the alkylation of cysteines for mass spectrometry. 10. Before loading samples onto the gel, centrifuge samples for 5 minutes at 15.000 rpm in order to remove precipitates. 11. For protein separation apply 10 μl sample to NuPAGE 4-12% Bis-Tris gel (Invitrogen, NPO335). 2.6 Preparation of Stock Solutions used in this Protocol\nas §5"}, "CaMKK2": {"biological_target": "CaMKK2 (Mus musculus, UniProt Q8C078)", "description": "as §6, §2, §3, §7, §5"}, "JNK2": {"biological_target": "T3, JNK2 (Mus musculus, UniProt Q9WTU6)", "T3 construct": "from tissue; host or cells: mouse brain", "T3 sequence (Q9WTU6 whole entry)": "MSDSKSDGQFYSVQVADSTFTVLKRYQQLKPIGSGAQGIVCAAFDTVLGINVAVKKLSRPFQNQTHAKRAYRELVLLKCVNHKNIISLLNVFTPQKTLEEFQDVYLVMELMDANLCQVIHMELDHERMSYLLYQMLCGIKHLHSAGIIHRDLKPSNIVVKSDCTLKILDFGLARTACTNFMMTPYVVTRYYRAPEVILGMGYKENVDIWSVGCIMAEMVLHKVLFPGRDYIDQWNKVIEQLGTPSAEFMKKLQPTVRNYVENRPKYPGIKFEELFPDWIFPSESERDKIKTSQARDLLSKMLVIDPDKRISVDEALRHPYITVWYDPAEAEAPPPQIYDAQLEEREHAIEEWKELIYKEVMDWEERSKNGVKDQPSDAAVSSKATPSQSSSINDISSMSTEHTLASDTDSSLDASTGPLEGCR", "description": "as §6, §2, §3, §7, §5"}, "MARK2": {"biological_target": "T4, MARK2 (Mus musculus, UniProt Q05512)", "T4 construct": "from tissue; host or cells: mouse brain", "description": "as §6, §2, §3, §7, §5"}, "CDK5": {"biological_target": "CDK5 (Mus musculus, UniProt P49615)", "sequence (P49615 whole entry)": "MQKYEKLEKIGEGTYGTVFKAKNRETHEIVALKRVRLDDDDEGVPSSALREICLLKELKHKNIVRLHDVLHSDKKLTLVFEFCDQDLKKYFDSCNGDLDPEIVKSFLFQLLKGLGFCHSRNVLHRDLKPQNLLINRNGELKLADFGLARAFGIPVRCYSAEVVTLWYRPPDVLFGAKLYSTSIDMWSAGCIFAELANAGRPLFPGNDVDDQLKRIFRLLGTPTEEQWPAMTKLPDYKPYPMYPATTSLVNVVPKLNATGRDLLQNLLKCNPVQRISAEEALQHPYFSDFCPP", "description": "as §6, §2, §3, §7, §5"}, "PYK2": {"biological_target": "T5, PYK2 (Mus musculus, UniProt Q9QVP9)", "T5 construct": "from tissue; host or cells: mouse brain", "description": "as §6, §2, §3, §7, §5"}, "RSK1 (Mus musculus)": {"system": "T6, RSK1 (Mus musculus)", "T6 construct": "from tissue; host or cells: mouse brain", "description": "as §6, §2, §3, §7, §5"}, "CaMK2a": {"biological_target": "T7, CaMK2a (Mus musculus, UniProt P11798)", "T7 construct": "[…]; from tissue; host or cells: mouse brain", "T7 sequence (P11798 whole entry)": "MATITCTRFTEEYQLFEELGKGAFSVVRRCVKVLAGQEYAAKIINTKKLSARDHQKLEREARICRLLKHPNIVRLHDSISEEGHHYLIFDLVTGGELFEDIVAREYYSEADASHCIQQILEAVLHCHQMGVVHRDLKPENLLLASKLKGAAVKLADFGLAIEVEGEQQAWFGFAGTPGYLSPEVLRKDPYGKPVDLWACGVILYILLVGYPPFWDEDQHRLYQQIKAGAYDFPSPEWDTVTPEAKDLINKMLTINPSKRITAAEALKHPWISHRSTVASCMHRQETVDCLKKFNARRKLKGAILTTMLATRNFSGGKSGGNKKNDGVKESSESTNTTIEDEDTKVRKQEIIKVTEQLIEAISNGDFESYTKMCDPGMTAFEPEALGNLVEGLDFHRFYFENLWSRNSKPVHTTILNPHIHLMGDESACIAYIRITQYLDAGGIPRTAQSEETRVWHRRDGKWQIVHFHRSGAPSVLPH", "description": "as §6, §2, §3, §7, §5"}, "PKCg": {"biological_target": "T8, PKCg (Mus musculus, UniProt P63318)", "T8 construct": "from tissue; host or cells: mouse brain", "description": "as §6, §2, §3, §7, §5"}, "FER": {"biological_target": "FER (Mus musculus, UniProt P70451)", "description": "as §6, §2, §3, §7, §5"}, "CRIK": {"biological_target": "CRIK (Mus musculus, UniProt P49025)", "description": "as §6, §2, §3, §7, §5"}, "Erk1ps5": {"biological_target": "T9, Erk1ps5 (Mus musculus, UniProt Q63844)", "T9 construct": "[…]; from tissue; host or cells: mouse brain", "T9 sequence (Q63844 2-380 limits assumed)": "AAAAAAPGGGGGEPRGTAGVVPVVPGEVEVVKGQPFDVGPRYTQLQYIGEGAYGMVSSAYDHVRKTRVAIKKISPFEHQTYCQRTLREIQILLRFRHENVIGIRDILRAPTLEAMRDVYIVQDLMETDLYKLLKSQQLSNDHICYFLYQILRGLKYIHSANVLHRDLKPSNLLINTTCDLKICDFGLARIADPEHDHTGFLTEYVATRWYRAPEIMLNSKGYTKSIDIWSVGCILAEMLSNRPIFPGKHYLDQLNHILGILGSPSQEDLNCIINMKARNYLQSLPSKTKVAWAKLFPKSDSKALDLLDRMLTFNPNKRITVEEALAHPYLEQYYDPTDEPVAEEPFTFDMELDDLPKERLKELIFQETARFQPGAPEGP", "description": "as §6, §2, §3, §7, §5"}, "CaMK2b": {"biological_target": "CaMK2b (Mus musculus, UniProt P28652)", "description": "as §6, §2, §3, §7, §5"}, "GSK3Aps": {"biological_target": "T10, GSK3Aps (Mus musculus, UniProt Q2NL51)", "T10 construct": "from tissue; host or cells: mouse brain", "T10 sequence (Q2NL51 2-490 limits assumed)": "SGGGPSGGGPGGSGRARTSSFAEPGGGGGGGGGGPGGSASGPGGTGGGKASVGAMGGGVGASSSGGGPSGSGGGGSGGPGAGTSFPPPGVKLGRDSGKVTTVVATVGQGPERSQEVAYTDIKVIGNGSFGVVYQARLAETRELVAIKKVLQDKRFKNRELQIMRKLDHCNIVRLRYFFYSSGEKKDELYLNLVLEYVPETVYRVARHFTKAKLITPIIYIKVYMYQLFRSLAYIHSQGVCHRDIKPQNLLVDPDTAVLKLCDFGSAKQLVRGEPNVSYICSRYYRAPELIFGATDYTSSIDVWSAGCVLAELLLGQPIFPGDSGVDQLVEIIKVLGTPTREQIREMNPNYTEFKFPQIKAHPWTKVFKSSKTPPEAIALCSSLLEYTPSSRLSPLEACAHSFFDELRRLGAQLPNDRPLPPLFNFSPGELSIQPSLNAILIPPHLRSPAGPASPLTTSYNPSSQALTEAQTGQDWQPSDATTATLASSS", "description": "as §6, §2, §3, §7, §5"}, "CaMK2d": {"biological_target": "T11, CaMK2d (Mus musculus, UniProt Q6PHZ2)", "T11 construct": "[…]; from tissue; host or cells: mouse brain", "T11 sequence (Q6PHZ2 whole entry)": "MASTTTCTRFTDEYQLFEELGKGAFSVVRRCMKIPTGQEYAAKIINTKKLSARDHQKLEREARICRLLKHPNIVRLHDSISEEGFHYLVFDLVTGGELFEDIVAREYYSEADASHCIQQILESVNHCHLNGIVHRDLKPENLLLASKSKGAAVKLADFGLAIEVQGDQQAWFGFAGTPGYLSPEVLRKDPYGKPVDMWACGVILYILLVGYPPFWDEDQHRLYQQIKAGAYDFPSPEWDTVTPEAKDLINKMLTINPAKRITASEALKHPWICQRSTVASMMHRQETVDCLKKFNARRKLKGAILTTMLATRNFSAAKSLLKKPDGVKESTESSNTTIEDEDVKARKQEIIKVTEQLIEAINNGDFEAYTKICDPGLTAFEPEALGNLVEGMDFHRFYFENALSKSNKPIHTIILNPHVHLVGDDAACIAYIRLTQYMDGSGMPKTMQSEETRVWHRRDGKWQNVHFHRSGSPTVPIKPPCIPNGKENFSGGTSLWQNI", "description": "as §6, §2, §3, §7, §5"}, "MAP2K1": {"biological_target": "T12, MAP2K1 (Mus musculus, UniProt P31938)", "T12 construct": "from tissue; host or cells: mouse brain", "T12 sequence (P31938 whole entry)": "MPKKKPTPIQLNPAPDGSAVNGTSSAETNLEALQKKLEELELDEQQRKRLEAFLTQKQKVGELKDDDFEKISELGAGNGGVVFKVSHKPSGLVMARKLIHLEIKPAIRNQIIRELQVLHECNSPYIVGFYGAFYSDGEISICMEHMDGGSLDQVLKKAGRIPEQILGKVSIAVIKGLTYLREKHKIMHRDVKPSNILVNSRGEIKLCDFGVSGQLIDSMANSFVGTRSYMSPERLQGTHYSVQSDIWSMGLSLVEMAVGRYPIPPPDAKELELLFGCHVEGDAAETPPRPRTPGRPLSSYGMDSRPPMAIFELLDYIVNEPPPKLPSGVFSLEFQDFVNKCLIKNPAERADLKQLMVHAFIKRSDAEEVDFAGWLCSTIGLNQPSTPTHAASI", "description": "as §6, §2, §3, §7, §5"}, "AAK1": {"biological_target": "AAK1 (Mus musculus, UniProt Q3UHJ0)", "sequence (Q3UHJ0 whole entry)": "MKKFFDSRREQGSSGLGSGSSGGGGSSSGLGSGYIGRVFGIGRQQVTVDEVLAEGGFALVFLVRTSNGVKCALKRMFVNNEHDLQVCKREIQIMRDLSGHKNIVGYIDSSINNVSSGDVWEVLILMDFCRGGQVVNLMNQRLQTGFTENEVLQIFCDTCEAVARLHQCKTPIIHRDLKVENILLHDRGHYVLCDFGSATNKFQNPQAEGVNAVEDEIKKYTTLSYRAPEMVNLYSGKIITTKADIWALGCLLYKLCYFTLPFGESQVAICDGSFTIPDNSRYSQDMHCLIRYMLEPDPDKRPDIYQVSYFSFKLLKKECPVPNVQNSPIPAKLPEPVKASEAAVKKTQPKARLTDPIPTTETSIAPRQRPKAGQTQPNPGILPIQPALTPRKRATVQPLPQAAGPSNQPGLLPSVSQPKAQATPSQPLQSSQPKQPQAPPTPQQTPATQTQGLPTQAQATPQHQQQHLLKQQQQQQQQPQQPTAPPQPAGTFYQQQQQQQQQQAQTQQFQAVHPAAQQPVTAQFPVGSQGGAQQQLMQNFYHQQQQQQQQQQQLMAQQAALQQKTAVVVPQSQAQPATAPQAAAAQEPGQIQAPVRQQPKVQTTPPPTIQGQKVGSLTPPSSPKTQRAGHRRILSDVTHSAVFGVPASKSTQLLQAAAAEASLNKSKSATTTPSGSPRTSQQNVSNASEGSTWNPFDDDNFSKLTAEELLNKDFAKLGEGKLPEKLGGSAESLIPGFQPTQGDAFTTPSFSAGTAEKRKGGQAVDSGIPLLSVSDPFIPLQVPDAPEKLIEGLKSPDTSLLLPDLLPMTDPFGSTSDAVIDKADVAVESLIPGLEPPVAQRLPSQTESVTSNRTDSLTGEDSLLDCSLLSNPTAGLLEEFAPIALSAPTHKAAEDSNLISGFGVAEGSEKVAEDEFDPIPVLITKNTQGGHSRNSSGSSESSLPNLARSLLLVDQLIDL", "description": "as §6, §2, §3, §7, §5"}}}
{"smiles": "NCCCn1cc(C2=C(c3c[nH]c4ccccc34)C(=O)NC2=O)c2ccccc21", "note": "[CZC1038, Bisindolylmaleimide III, reference compound]", "values": [{"measurement": "mass spectrometry score, GSK3B", "setting": "GSK3B", "result": 1176}, {"measurement": "number of identified peptides, GSK3B", "setting": "GSK3B", "result": 54}, {"measurement": "mass spectrometry score, CaMK2g", "setting": "CaMK2g", "result": 550}, {"measurement": "number of identified peptides, CaMK2g", "setting": "CaMK2g", "result": 18}, {"measurement": "mass spectrometry score, Erk2", "setting": "Erk2", "result": 754}, {"measurement": "number of identified peptides, Erk2", "setting": "Erk2", "result": 50}, {"measurement": "mass spectrometry score, CaMKK2", "setting": "CaMKK2", "result": 314}, {"measurement": "number of identified peptides, CaMKK2", "setting": "CaMKK2", "result": 6}, {"measurement": "mass spectrometry score, JNK2", "setting": "JNK2", "result": 287}, {"measurement": "number of identified peptides, JNK2", "setting": "JNK2", "result": 11}, {"measurement": "mass spectrometry score, MARK2", "setting": "MARK2", "result": 49}, {"measurement": "number of identified peptides, MARK2", "setting": "MARK2", "result": 1}, {"measurement": "mass spectrometry score, CDK5", "setting": "CDK5", "result": 831}, {"measurement": "number of identified peptides, CDK5", "setting": "CDK5", "result": 19}, {"measurement": "mass spectrometry score, PYK2", "setting": "PYK2", "result": 291}, {"measurement": "number of identified peptides, PYK2", "setting": "PYK2", "result": 7}, {"measurement": "mass spectrometry score, RSK1", "setting": "RSK1 (Mus musculus)", "result": 292}, {"measurement": "number of identified peptides, RSK1", "setting": "RSK1 (Mus musculus)", "result": 7}, {"measurement": "mass spectrometry score, CaMK2a", "setting": "CaMK2a", "result": 911}, {"measurement": "number of identified peptides, CaMK2a", "setting": "CaMK2a", "result": 53}, {"measurement": "mass spectrometry score, PKCg", "setting": "PKCg", "result": 107}, {"measurement": "number of identified peptides, PKCg", "setting": "PKCg", "result": 2}, {"measurement": "mass spectrometry score, FER", "setting": "FER", "result": 237}, {"measurement": "number of identified peptides, FER", "setting": "FER", "result": 6}, {"measurement": "mass spectrometry score, CR1K", "setting": "CRIK", "result": 90}, {"measurement": "number of identified peptides, CR1K", "setting": "CRIK", "result": 5}, {"measurement": "mass spectrometry score, Erk1ps5", "setting": "Erk1ps5", "result": 418}, {"measurement": "number of identified peptides, Erk1ps5", "setting": "Erk1ps5", "result": 14}, {"measurement": "mass spectrometry score, CaMK2b", "setting": "CaMK2b", "result": 834}, {"measurement": "number of identified peptides, CaMK2b", "setting": "CaMK2b", "result": 52}, {"measurement": "mass spectrometry score, GSK3Aps", "setting": "GSK3Aps", "result": 1232}, {"measurement": "number of identified peptides, GSK3Aps", "setting": "GSK3Aps", "result": 60}, {"measurement": "mass spectrometry score, CaMK2d", "setting": "CaMK2d", "result": 702}, {"measurement": "number of identified peptides, CaMK2d", "setting": "CaMK2d", "result": 17}, {"measurement": "mass spectrometry score, MAP2K1", "setting": "MAP2K1", "result": 208}, {"measurement": "number of identified peptides, MAP2K1", "setting": "MAP2K1", "result": 6}, {"measurement": "mass spectrometry score, AAK1", "setting": "AAK1", "result": 562}, {"measurement": "number of identified peptides, AAK1", "setting": "AAK1", "result": 38}]}
